Molecular target: T1, glucosidase II (Homo sapiens, UniProt Q14697)
T1 construct: endogenous in cells; host or cells: HL60 cells
T1 sequence (Q14697 29-944): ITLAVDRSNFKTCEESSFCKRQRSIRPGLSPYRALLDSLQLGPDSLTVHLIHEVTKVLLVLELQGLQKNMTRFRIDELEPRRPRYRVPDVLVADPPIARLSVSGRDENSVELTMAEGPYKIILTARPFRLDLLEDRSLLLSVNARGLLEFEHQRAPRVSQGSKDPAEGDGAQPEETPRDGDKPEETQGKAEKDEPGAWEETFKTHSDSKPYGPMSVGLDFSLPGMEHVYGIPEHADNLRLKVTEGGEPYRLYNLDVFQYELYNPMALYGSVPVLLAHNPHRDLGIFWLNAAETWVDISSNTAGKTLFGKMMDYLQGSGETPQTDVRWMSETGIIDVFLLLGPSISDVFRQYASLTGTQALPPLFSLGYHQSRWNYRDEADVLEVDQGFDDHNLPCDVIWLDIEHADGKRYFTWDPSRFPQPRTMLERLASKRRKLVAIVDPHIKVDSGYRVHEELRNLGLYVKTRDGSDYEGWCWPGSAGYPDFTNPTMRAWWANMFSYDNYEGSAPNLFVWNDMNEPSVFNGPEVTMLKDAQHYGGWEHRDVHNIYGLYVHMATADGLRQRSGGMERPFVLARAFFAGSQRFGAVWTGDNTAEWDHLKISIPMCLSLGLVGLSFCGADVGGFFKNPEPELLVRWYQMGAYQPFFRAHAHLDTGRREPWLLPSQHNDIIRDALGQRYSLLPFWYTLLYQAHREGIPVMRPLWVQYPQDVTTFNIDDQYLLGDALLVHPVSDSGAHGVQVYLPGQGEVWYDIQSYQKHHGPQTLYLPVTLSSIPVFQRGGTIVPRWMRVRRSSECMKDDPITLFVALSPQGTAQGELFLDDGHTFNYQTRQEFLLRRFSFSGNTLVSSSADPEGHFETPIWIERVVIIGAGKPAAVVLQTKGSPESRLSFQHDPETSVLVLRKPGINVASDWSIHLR
T1 sequence (P14314 15-528 partner): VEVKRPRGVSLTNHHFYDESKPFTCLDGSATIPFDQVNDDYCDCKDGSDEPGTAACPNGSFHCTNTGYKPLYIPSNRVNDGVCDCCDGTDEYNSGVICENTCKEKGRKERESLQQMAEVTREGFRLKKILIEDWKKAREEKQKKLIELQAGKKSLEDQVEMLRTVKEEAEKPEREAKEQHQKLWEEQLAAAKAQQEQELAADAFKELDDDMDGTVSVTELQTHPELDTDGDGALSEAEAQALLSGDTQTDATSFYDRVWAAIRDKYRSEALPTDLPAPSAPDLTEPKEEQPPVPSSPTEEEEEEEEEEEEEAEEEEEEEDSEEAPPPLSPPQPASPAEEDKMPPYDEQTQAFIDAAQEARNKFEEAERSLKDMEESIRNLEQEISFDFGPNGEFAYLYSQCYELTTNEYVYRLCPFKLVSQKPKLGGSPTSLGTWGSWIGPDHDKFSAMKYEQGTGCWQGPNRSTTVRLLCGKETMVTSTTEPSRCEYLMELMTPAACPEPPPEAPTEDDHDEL
Assay: Inhibition of glucosidase II in HL60 cells, free oligosaccharide (G1M5N) analysis by NP-HPLC
Type: cell-based
Conditions: 24 h
Experimental: The effect of an ER-glucosidase inhibitor on cells was evaluated using an assay method by modifying known methods. (H. R. Mellor et al., Cellular Effects of Deoxynojirimycin Analogues: Inhibition of N-Linked Oligosaccharide Processing and Generation of Free Glucosylated Oligosaccharides, 381 Biochem. J. 867-875 (2004). The detection of free oligosaccharides following imino sugar treatment to generate misfolded protein that is degraded in the cytosol is an accurate measure of cell ER entry and inhibition of glycoprotein processing of α-glucosidases I and II by imino sugars.
Cells were cultured to high density (×10^7 cells/ml) prior to growth in fresh medium containing NB-DNJ at varying concentrations. The cells were seeded at a lower density so as to achieve a high density at the end of the incubation period. […] The conditions for extraction of FOS were determined to maximize recovery of FOS. […]
ConA-Sepharose purified 2-AA-labeled oligosaccharides were separated by NP-HPLC using a 4.6×250 mm TSKgel Amide-80 column (Anachem, Luton, UK) with slight modifications to known methods. (D. C. Neville, et al.) The chromatography system consisted of a Waters Alliance 2695 separations module and an in-line Waters 474 fluorescence detector set at an excitation wavelength of 360 nm and emission wavelength of 425 nm. […]

concentration at which glucosidase II is inhibited in cells: 1 to 10 µM
Compound: [N-]=[N+]=Nc1ccc(NCCCCCCN2C[C@H](O)[C@@H](O)[C@H](O)[C@H]2CO)c([N+](=O)[O-])c1 [NAP-DNJ, N—(N′-{4′azido-2′-nitrophenyl)-6-aminohexyl)-deoxynojirimycin]

From patent US8975280B2, “Deoxynojirimycin and D-arabinitol analogs and methods of using” (The Chancellor, Masters and Scholars of The University of …, priority 2006, dated 2015)
